Entries after “also recorded” stand apart in the source; their conditions may differ.
Assays:
D283 = test: Flow cytometric analysis of CD133-positive fraction; assay type: cell-based; conditions: 2 μM
Source text: (§1) The effects of Notch on the CD133-positive CSC subpopulation were first examined. Singh and colleagues have shown that only CD133-positive MB and glioblastoma cells are able to form multipotent neurosphere clones or tumor xenografts (6, 12). Another type of brain tumor, ependymoma, also appears to contain a small fraction of CD133-positive cells uniquely capable of initiating tumor xenografts (9). […] The D283Med and D425Med lines, which grow in suspension, contained higher percentages of CD133 positive cells. Sorting of DAOY cultures using magnetic beads coated with antibodies specific for CD133 generated an enriched population in which 30% of cells expressed the stem cell marker, and a negative population in which less than 1% of cells were CD133-positive. […] Thus Notch signaling appears to be especially active in CSC, raising the possibility that inhibition of this pathway may target the CSC population.
(§2) The DAOY, PFSK, D283 and D425 Med cell lines were obtained from the American Type Culture Collection. The low-passage MB line MB2 was derived from a tumor resected at Johns Hopkins Hospital. For treatment studies, cell were plated and allowed to grow overnight in MEM (Invitrogen, Carlsbad, Calif.) containing 10% FBS, then media was replaced the next morning with low serum (0.5% FBS) MEM containing GSI dissolved in DMSO. RNA and protein extractions, and all cell-based assays, were performed 48 hours after drug application unless otherwise noted. All experiments with error bars were performed in triplicate and shown as mean values with standard error unless otherwise noted. Cell mass was measured using CellTITER assays according to the manufacturer's instructions (Promega, Madison, Wis.). Cell number and viability were assessed using the Guava PCA and Viacount reagent according to instructions (Guava Technologies, Heyward, Calif.). Soft agar assays were performed as previously described (15) and scored either manually after 4 weeks or using as automated reader after 6 weeks. The constitutively active Akt stable cell line was made by transfecting DAOY cells with myristolated Akt (pCB6-IMy-Akt-HA) or control (pCB6+) plasmids (kind gifts from Susan J. Baker) and selecting and maintaining clones in 0.8 mg/ml G418. Soft agar assays were performed as previously described, with colonies counted using an automated reader (15).
(§3) Flow cytometric analysis of S-phase fraction and cell cycle kinetics was performed using a FACSCalibur (Becton Dickinson, San Jose, Calif.) with CELL Quest, version 3.3 software (15). CD133 studies were performed using the same instrument, with antibodies from Miltenyi (Miltenyi Biotec, Auburn, Calif.) according to the manufacturer's instructions. Cells expressing levels of CD133 higher than those seen in IgG controls were considered positive. For analyses of side population, cells (10^6/ml) were incubated with Hoechst 33342 (3 μM, Molecular Probes, Carlsbad, Calif.) for 90 minutes at 37° C. in DMEM containing 2% FBS. Prior to analysis, cells were washed and resuspended in 2 μg/ml PI (Sigma, St. Louis, Mo.). Cells were analyzed on a LSR flow cytometer equipped with 424/44 nm band pass and 670 nm long pass optical filters (Omega Optical, Brattleboro, Vt.). To ensure proper identification of SP cells, cells were incubated as above with the addition of 50 μM verapamil (Sigma).

D425 = test: as above; assay type: cell-based; conditions: 2 μM
Source text: as §1, §2, §3

DAOY [1] = test: as above; assay type: cell-based; conditions: 2 μM, 48 hours
Source text: as §1, §2, §3

PFSK = test: as above; assay type: cell-based; conditions: 2 μM, p<0.01
Source text: as §1, §2, §3

DAOY [2] = test: Apoptosis by cleaved caspase 3 immunofluorescence in nestin-positive and nestin-negative cells; assay type: cell-based; conditions: 2 μM, 48 hours
DAOY:NICD2 = test: Viable cell mass (CellTITER assay); assay type: cell-based; conditions: 0.4 μM and 2 μM
Method: (§4) The fact that cultures grew 2-fold or more during the same time period that side population was essentially ablated by Notch pathway blockade provides additional support for the notion that medulloblatoma CSC are especially vulnerable to Notch signaling inhibition.
as §2

MB cultures = test: Viable cell mass (CellTITER assay); assay type: cell-based
Method: as §4, §2

DAOY [3] = test: Clonogenic assay in soft agar; assay type: cell-based; conditions: equal number of viable cells seeded after 48 hours of treatment; 2 μM; vehicle 2.9%
Method: (§5) A clonogenic assay was used to determine whether cells capable of initiating anchorage-independent colonies were depleted by GSI-18. In vehicle-treated DAOY cultures, 2.9% of cells formed large colonies when seeded in soft agar (FIG. 7H). This number dropped to 0.26% when an equal number of viable cells were counted and seeded after 48 hours of treatment with GSI-18, and increased to 7.2% in the presence of constitutive Notch2 activation. Initiation of tumor xenografts was assayed next, a strategy used in several previous studies to examine the presence or absence of cancer stem cells (6-8). DAOY and DAOY:NICD2 cultures were treated with either 2 μM GSI-18 or vehicle alone, and the viable cells remaining after 48 hours counted using Trypan blue. […] To rule out the possibility that cells were alive but moribund following gamma-secretase inhibition, the experiment was repeated with cells counted after a recovery period.
The DAOY, PFSK, D283 and D425 Med cell lines were obtained from the American Type Culture Collection. […] Cell mass was measured using CellTITER assays according to the manufacturer's instructions (Promega, Madison, Wis.). Cell number and viability were assessed using the Guava PCA and Viacount reagent according to instructions (Guava Technologies, Heyward, Calif.). […] Soft agar assays were performed as previously described, with colonies counted using an automated reader (15).

DAOY [4] = test: Xenograft initiation by pretreated cells injected subcutaneously in athymic (nude) mice; assay type: in vivo
Method: as §5, with “blue. 500,000 viable cells from each group were then injected subcutaneously in athymic (nude) mice. Large xenografts formed at the sites of all 12 control injections.” for “blue.”

D425Med = test: Xenograft initiation by pretreated cells in athymic (nude) mice; assay type: in vivo; conditions: treated 48 hours, n=2
[5] = tested on: GBM neurosphere line HSR-GBM1a; test: Growth of GBM neurospheres in vitro (total cell number); assay type: cell-based
Method: (§6) (A, B) CD133 is expressed in GBM neurosphere line HSR-GBM1a. (C) The total cell number was decreased upon GSI-18 treatment for 48 h in this line and in the subclones of the line. […] (E) Protein expression of Hes1, a Notch pathway target gene, was reduced upon GSI-18 treatment in GBM neurosphere cells.
(§7) It has been shown that the Notch signaling pathway regulates normal stem cells in the Central Neural System (CNS), and that GBMs contain cancer stem cells (CSCs) with higher Notch activity (Cancer Research, 64:7011-21, 2004; Cancer Cell, 9:391-403, 2006). However, it has not been known if Notch pathway blockade could target CSCs in GBM. […] In the present study, we used GBM neurospheres to examine the effects of Notch pathway blockade in GBM. […] Furthermore, overexpression of an active form of Notch2 (NICD2) increases tumor growth in vitro.

[6] = tested on: GBM neurosphere line HSR-GBM1a; test: CD133 expression in GBM neurosphere culture; assay type: cell-based; conditions: 2 μM
Method: as §6, §7

[7] = tested on: Hes1, a Notch pathway target gene; test: Hes1 protein expression in GBM neurosphere cells; assay type: cell-based
Method: as §6

In the case of `O=S(=O)(NC1C2CCC1Cc1ccccc1C2)c1cccs1` (stereo not drawn) [GSI-18, [11-endo]-N-(5,6,7,8,9,10-hexahydro-6,9-methanobenzo[α][8]annulen-11-yl)-thiophene-2-sulfonamide], the “decrease in the percentage of CD133-positive cells” value (D283) was “less pronounced”, the “decrease in the percentage of CD133-positive cells” value (D425) was “less pronounced” and the “fold reduction of CD133-positive stem-like fraction” value (DAOY [1]; p<0.01) was 3 fold. The “CD133-positive stem-like fraction after treatment” value (DAOY [1]; untreated 9.9%) was 3.3%, the “fold reduction in the percentage of CD133-positive cells” value (PFSK) was 4.8 fold and the “increase of apoptotic rate in nestin-positive cells (putative CSC)” value (DAOY [2]) was “over 10 fold”. For the same compound, the “growth (viable cell mass) under NICD2 expression” value (DAOY:NICD2) was “rescued growth”, the “short-term increases in viable cell mass” value (MB cultures; 0 μM, 0.4 μM, and 2 μM) was “reduced in a dose-dependent fashion” and the “growth of cultures during Notch pathway blockade” value (MB cultures; same time period in which side population was ablated) was ≥ 2 fold. For the same compound, the “cells forming large colonies in soft agar” value (DAOY [3]) was 0.26%, the “xenograft formation from pretreated cells” value (DAOY [4]; 2 μM, 48 hours pretreatment, 500,000 viable cells injected subcutaneously) was “only one very small lesion formed among the four sites” and the “tumor formation from pretreated cells after recovery” value (DAOY [4]; two days of treatment, 24 hours recovery in 10% FBS without inhibitor) was “unable to form tumors”. The “engraftment of pretreated cells” value (D425Med) was “failed to engraft”, the total cell number ([5]; 48 h, HSR-GBM1a and subclones) was “decreased” and the “tumor growth in vitro” value ([5]; GBM neurospheres, 2 μM) was “inhibits tumor growth in vitro”. The “CD133 expression in the whole culture” value [6] was “significantly reduced; also recorded: reduces expression of CD133” and the “protein expression of Hes1” value [7] was “reduced”.

— patent US20140227173A1, “CANCER TREATMENT WITH GAMMA-SECRETASE INHIBITORS” (The Johns Hopkins University, priority 2006, published 2014)
